Results taken from the NIST ThermoML archive (doi:10.1021/je100069q).
± gives the expanded uncertainty stated by the source.

Conditions: 101.33 kPa, Liquid

mass density (313.15 K) [kg/m3] | Structure (SMILES) | mass density (293.15 K) [kg/m3] | also measured
1018.8 ± 0.27 | Cc1ccc(O)cc1 [4-methylphenol] | – | –
1058.3 ± 0.35 | Oc1ccccc1 [phenol] | – | –

Further lines, the compound ahead of its results:

Structure (SMILES) | mass density (313.15 K) [kg/m3] | mass density (293.15 K) [kg/m3] | also measured
Cc1ccccc1O [2-methylphenol] | – | – | mass density (308.15 K): 1032.73 ± 0.61 kg/m3
Cc1cccc(O)c1 [3-methylphenol] | – | 1033.85 ± 0.28 | –
CCc1ccccc1 [ethylbenzene] | – | – | mass density (298.15 K): 862.59 ± 0.3 kg/m3
Cc1ccccc1 [toluene] | – | 866.78 ± 0.31 | –
